Patent publication US11737462B2, “Methods for modulating plant response to environmentally-induced stress” (Howard University, priority 2012, dated 2023)

What was measured:
Arabidopsis plants = test: drought-induced stress (sorbitol) in Arabidopsis plants; type: in vivo, Arabidopsis thaliana; conditions: 150 mM sorbitol plus 60 μM compound, about three weeks, room temperature
Protocol: In the examples described herein, the test compounds (e.g., SD-29 or analogs thereof) were dissolved in dimethyl sulfoxide (DMSO) to provide a 20 mM concentration. Micromolar concentrations were then prepared as needed by addition to the water incubation media. Unless stated otherwise, the experimental plants were incubated with the roots immersed in the water containing the compound. The control plants received only DMSO in the same amount as that of the compound. The effect of SD-29 on modulating drought-induced stress was evaluated with Arabidopsis plants for about three weeks at room temperature. Sorbitol was used to imitate drought conditions. All plants received sufficient incubation media to last the seven days. Plant A was treated with DMSO (in a volume equal to the volume of SD-29 used for Plants B and C), plant B was treated with 150 mM sorbitol plus 60 μM SD-29, plant C was treated with 60 μM SD-29, and plant D was treated with 150 mM sorbitol in the incubation medium.

chloroplastic Cu—Zn SOD = test: native gel assay of SOD activity in rice leaves; type: in vivo; conditions: set up as FIG. 5: 60 μM compound, 250 mM NaCl; wild-type and RACK1 over-expressing (OX) rice
Protocol: Native gel analysis was performed on a lysate prepared from the pepper plant leaves in FIG. 8. The gel is stained for detecting enzymatic activity of different isoforms of superoxide dismutase—key enzymes that detoxify the reactive oxygen species which usually develop during the stress conditions. […] Therefore, it appears that SD-29 may help detoxify the cellular reactive oxygen species generated during the salt stress conditions. The wild-type rice plants were compared to a rice plant over-expressing rice RACK1 protein (referred to as “OX”). The OX plants were treated as described in this example for the wild-type rice plant. Native gel assay was performed as described for FIG. 8 and the experimental set up was exactly the same as described for FIG. 5.

Arabidopsis RACK1A = target: T1, Arabidopsis RACK1A (Arabidopsis thaliana, UniProt O24456); test: western blot of RACK1A tyrosine phosphorylation in Arabidopsis leaves under heat stress; type: in vivo
T1 construct: from tissue; host or cells: Arabidopsis plant leaves
Protocol: In the examples described herein, the test compounds (e.g., SD-29 or analogs thereof) were dissolved in dimethyl sulfoxide (DMSO) to provide a 20 mM concentration. Micromolar concentrations were then prepared as needed by addition to the water incubation media. Unless stated otherwise, the experimental plants were incubated with the roots immersed in the water containing the compound. The control plants received only DMSO in the same amount as that of the compound. In the second group (FIG. 3), Arabidopsis plants were held at 42° C. for six hours and compared to control plants held at about 22° C. The Arabidopsis plant in the experimental group was treated with 60 μM SD-29 in water. A control plant received water and DMSO. Lysates were then prepared from the leaves and western blots were performed using immobilized mouse anti-pTRY and Arabidopsis-anti RAC[…]. […] A similar experiment was carried out using analog SD-29-9 and SD-29 at 42° C. for three hours. […] A western blot was then performed using an antibody that was raised targeting phosphorylated […] residue of RAC[…].

MnSOD = test: native gel assay of Mn-SOD activity in rice during salt stress; type: in vivo; conditions: salt stress conditions, NaCN in gel activity buffer
tomato plants = test: salt-induced stress in tomato plants; type: in vivo; conditions: 60 μM compound plus 250 mM NaCl, five days, about 24° C.
Protocol: In the examples described herein, the test compounds (e.g., SD-29 or analogs thereof) were dissolved in dimethyl sulfoxide (DMSO) to provide a 20 mM concentration. Micromolar concentrations were then prepared as needed by addition to the water incubation media. Unless stated otherwise, the experimental plants were incubated with the roots immersed in the water containing the compound. The control plants received only DMSO in the same amount as that of the compound. Salt-induced stress was evaluated with tomato plants at room temperature (about 24° C.) for five days. The plants received sufficient incubation media to last through the five day experiment. Plant A received 60 μM SD-29 plus 250 mM NaCl and plant B received 250 mM NaCl (plus DMSO in the same volume as the volume of SD-29 received by plant A) in the incubation medium.

Arabidopsis protoplasts = test: H2O2-induced reactive oxygen species in Arabidopsis protoplasts (H2DCF staining); type: cell-based, Arabidopsis thaliana; conditions: H2O2 for 2 hours, 60 μM compound, H2DCF dye
Protocol: In this example, to examine whether SD-29 can prevent generation of reactive oxygen species (ROS) under stress, the effect of SD-29 on H2O2 treated Arabidopsis protoplasts was evaluated. Protoplasts were treated with H2O2 for 2 hours with and without 60 μM SD-29. An untreated control was also evaluated. The protoplasts were stained with reactive oxygen species visualization dye H2DCF that fluoresces in the presence of ROS and the treated protoplasts were evaluated using fluorescent microscopy.

rice detached leaves = test: salt-induced stress in rice detached leaves; type: in vivo; conditions: seven days
Protocol: In the examples described herein, the test compounds (e.g., SD-29 or analogs thereof) were dissolved in dimethyl sulfoxide (DMSO) to provide a 20 mM concentration. Micromolar concentrations were then prepared as needed by addition to the water incubation media. Unless stated otherwise, the experimental plants were incubated with the roots immersed in the water containing the compound. The control plants received only DMSO in the same amount as that of the compound. The effect of SD-29 on modulating salt-induced stress was evaluated with rice detached leaves at room temperature (about 24° C.) for seven days in a water incubation medium. All plants received sufficient incubation medium to last the seven days. Plant A (left most) received 250 mM NaCl plus DMSO, Plant B (right of Plant A) received 60 μM SD-29 and 250 mM NaCl, and plant D received 60 μM SD-29 in the incubation medium. The incubation medium of Plant C was untreated. The rice plant leaves were photographed directly after seven days. […] Much of the chlorophyll of plant A (salt treatment alone) was degraded, while SD-29 treated leaves (Leaf B) maintained the chlorophyll level even in the presence of the same amount of salt.

[1] = tested on: salt glands (trichome) on Arabidopsis leaves; test: sodium green dye staining of Arabidopsis leaves (sodium uptake); type: in vivo, Arabidopsis thaliana; conditions: 1 week old plants, 100 mM salt, 60 μM compound, three hours
Protocol: 1 week old Arabidopsis plants were treated with and without 100 mM salt, as well as with and without the presence of 60 μM SD-29, in incubation medium for three hours. The leaves were stained with sodium green dye (5 μM) according to the manufacturer's protocol (Invitrogen, Calif.) and analyzed by fluorescent microscopy to determine if the plants take up sodium from the incubation medium. The dye fluoresces in the presence of sodium ion.

T1 sequence (O24456 whole entry): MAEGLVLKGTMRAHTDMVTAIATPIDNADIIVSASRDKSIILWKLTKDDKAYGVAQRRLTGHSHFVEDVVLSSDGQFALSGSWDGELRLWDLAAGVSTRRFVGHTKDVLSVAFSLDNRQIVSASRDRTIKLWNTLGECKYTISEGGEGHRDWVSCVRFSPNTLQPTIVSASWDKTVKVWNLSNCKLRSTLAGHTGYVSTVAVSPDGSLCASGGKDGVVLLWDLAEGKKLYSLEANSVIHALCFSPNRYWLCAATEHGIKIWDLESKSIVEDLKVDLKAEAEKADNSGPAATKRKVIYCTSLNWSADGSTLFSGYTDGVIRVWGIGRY

Compound: Nn1c(S)nnc1-c1ccc(F)cc1 [SD-29]
- plant performance under drought-imitating sorbitol (Arabidopsis plants): performed much better than the plant treated with sorbitol alone
- chloroplastic Cu—Zn SOD activity in rice leaves (chloroplastic Cu—Zn SOD): upregulates chloroplastic Cu—Zn SOD activity
- Arabidopsis RACK1A tyrosine phosphorylation during heat stress (Arabidopsis RACK1A; 60 μM, 42° C. for six hours, western blot of leaf lysates): prevents Arabidopsis RACK1A tyrosine phosphorylation
- Arabidopsis RACK1A tyrosine phosphorylation at increased temperature (Arabidopsis RACK1A; 42° C. for three hours, western blot, antibody to phosphorylated Y248): effective to prevent Arabidopsis RACK1A tyrosine phosphorylation at increased temperature
- MnSOD activity in rice (MnSOD): upregulates MnSOD activity
- tomato plant condition in high salt (tomato plants): thrived (did not wilt) in the high salt conditions
- accumulation of H2O2-induced reactive oxygen species in protoplasts (Arabidopsis protoplasts): prevented accumulation of H2O2-induced reactive oxygen species
- salt stress-induced chlorosis of rice leaves (rice detached leaves; 60 μM compound and 250 mM NaCl, about 24° C.): protect the rice leaves from salt stress-induced chlorosis
- rice leaf appearance with compound alone (rice detached leaves; 60 μM compound without salt, vs untreated Leaf C): showed little difference from control Leaf C
- salt uptake through the salt glands (sodium green fluorescence) [1]: prevents salt uptake through the salt glands (trichome)
